Laboratory results: PubChem BioAssay AID1845208 (Molecular Pharmacology Branch, DTP, NCI, 2023)

Test system: NCI-H196 SCLC complex tumor spheroid viability
Assay: Anticancer human tumor NCI-H196 cell line growth inhibition;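 note: spheroids exposed to compounds for 7 days before readout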;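 for viability, T/C: 100% = DMSO vehicle control wells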
Details: for IC50: curve of first compound; for viability, T/C: stronger effect = lower value
How it was run: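 Single agents and combinations were tested on spheroids built from tumor cells plus HUVEC and hMSC, at half-log dilutions starting at or near clinical Cmax, else 10 microM; final DMSO 0.25% (v/v).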

CC(C)n1c(=O)n(C)c2cnc3cc(F)c(-c4ccc(OCCCN5CCCCC5)nc4)cc3c21 + Cn1nnc2c(C(N)=O)ncn2c1=O
IC50 (second compound 1 µM): > 10 µM | IC50 (second compound 3.16 µM): > 10 µM | IC50 (second compound 10 µM): > 10 µM | IC50 (second compound 31.6 µM): > 10 µM | IC50 (second compound 100 µM): > 10 µM | viability, T/C (second compound 1 µM, first compound 0.0316 µM): 93.1% | viability, T/C (second compound 1 µM, first compound 0.1 µM): 102% | viability, T/C (second compound 1 µM, first compound 0.316 µM): 91.8% | viability, T/C (second compound 1 µM, first compound 1 µM): 99.7% | viability, T/C (second compound 1 µM, first compound 3.16 µM): 101% | viability, T/C (second compound 1 µM, first compound 10 µM): 93.6% | viability, T/C (second compound 3.16 µM, first compound 0.0316 µM): 94.3% | viability, T/C (second compound 3.16 µM, first compound 0.1 µM): 102% | viability, T/C (second compound 3.16 µM, first compound 0.316 µM): 101% | viability, T/C (second compound 3.16 µM, first compound 1 µM): 119% | viability, T/C (second compound 3.16 µM, first compound 3.16 µM): 100% | viability, T/C (second compound 3.16 µM, first compound 10 µM): 94.2% | viability, T/C (second compound 10 µM, first compound 0.0316 µM): 90.8% | viability, T/C (second compound 10 µM, first compound 0.1 µM): 97.7% | viability, T/C (second compound 10 µM, first compound 0.316 µM): 98.4% | viability, T/C (second compound 10 µM, first compound 1 µM): 106% | viability, T/C (second compound 10 µM, first compound 3.16 µM): 106% | viability, T/C (second compound 10 µM, first compound 10 µM): 95% | viability, T/C (second compound 31.6 µM, first compound 0.0316 µM): 103% | viability, T/C (second compound 31.6 µM, first compound 0.1 µM): 103% | viability, T/C (second compound 31.6 µM, first compound 0.316 µM): 101% | viability, T/C (second compound 31.6 µM, first compound 1 µM): 104% | viability, T/C (second compound 31.6 µM, first compound 3.16 µM): 116% | viability, T/C (second compound 31.6 µM, first compound 10 µM): 90.8% | viability, T/C (second compound 100 µM, first compound 0.0316 µM): 103% | viability, T/C (second compound 100 µM, first compound 0.1 µM): 96.2% | viability, T/C (second compound 100 µM, first compound 0.316 µM): 98.3% | viability, T/C (second compound 100 µM, first compound 1 µM): 100% | viability, T/C (second compound 100 µM, first compound 3.16 µM): 95.8% | viability, T/C (second compound 100 µM, first compound 10 µM): 82.1%
